Assay results as given in patent US9440969B2, “Compounds and methods for kinase modulation, and indications therefor” (PLEXXIKON INC., priority 2009, dated 2016).

Key:
CYP2D6 = CYP2D6 (Homo sapiens, UniProt P10635); assay: CYP2D6 inhibition (fluorescent substrate AMMC); type: in vitro ADME; conditions: read-out: Cyp IC50 (μM) 2D6
Experimental: (§1) CYP (Cytochrome P450) enzymes are the major drug metabolizing enzymes present in the liver. The inhibition of CYP enzyme activity (IC50) for each of CYP1A2, CYP2C19, CYP2C9, CYP2D6, CYP3A4(BFC) and CYP3A4(BQ) is determined for compounds, where inhibition of metabolism of a known substrate leads to a decrease in the fluorescence of the metabolized product. The fluorescence of the product is monitored as a function of compound concentration. Compounds are dissolved in dimethyl sulfoxide to a concentration of 100 mM. These are diluted […], into 82 μL of acetonitrile. An 11 μL aliquot of this solution is then added to 204 μL of cofactor mix (1.3% NADPH Regeneration system Solution A, 1.04% NADPH Regeneration system Solution B from BD Biosciences, 5% acetonitrile and 0.05% dimethyl sulfoxide). These are then serially diluted 1:1 (160 μL to 160 μL co-factor mix) for a total of 10 points. A 10 μL aliquot of this final mixture is dispensed into 384 well assay plates and incubated for 10 minutes at 37° C. Enzyme and substrate mix (10 μL; 0.5 pmol CYP1A2/5 μM CEC; 1.0 pmol CYP2C9/75 μM MFC; 0.5 pmol CYP2C19/25 μM CEC; 1.5 pmol CYP2D6/1.5 μM AMMC; 1.0 pmol CYP3A4/50 μM BFC; or 1.0 pmol CYP3A4/40 μM BQ) is added to these assay plates. Assay plates are incubated at 37° C. (CYP1A2-15 min; CYP2C9-45 min; CYP2C19, 2D6 and 3A4-30 min) and read in a Tecan Safire 2 plate reader (CYP1A2, 2C19 and 3A4 409 ex/460 em; CYP2C9 and 2D6 409 ex/530 em). The signal versus compound concentration is used to determine the IC50. The enzymes and substrates for this assay are obtained from BD Biosciences.

CYP1A2 = biological target: T1, CYP1A2 (Homo sapiens, UniProt P05177); assay: CYP1A2 inhibition (fluorescent substrate CEC); type: in vitro ADME; conditions: read-out: Cyp IC50 (μM) 1A2
T1 sequence (P05177 1-516): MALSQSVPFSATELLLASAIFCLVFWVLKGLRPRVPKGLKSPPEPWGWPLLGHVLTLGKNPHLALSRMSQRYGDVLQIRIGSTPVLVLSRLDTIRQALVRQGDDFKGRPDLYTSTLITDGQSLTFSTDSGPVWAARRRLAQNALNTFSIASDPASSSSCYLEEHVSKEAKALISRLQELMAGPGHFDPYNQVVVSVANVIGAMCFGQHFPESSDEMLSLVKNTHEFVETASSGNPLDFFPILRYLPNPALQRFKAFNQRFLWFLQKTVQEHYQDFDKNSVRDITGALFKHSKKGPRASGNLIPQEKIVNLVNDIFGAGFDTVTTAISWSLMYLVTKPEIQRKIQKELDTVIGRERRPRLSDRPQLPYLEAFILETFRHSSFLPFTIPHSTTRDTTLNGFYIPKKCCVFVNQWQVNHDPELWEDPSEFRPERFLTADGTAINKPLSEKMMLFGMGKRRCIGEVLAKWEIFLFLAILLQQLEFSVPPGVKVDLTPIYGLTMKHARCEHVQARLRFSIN
Experimental: as §1

B-Raf V600E = B-Raf V600E (Homo sapiens, UniProt P15056, V600E); assay: B-Raf V600E kinase activity assay (AlphaScreen, biotin-MEK1 substrate); conditions: 100 μM ATP, 100 nM biotin-MEK1, 45 minutes at room temperature, read-out: Biochemical activity (IC50 μM) V600E
Chain of B-Raf V600E (P15056 whole entry V600E): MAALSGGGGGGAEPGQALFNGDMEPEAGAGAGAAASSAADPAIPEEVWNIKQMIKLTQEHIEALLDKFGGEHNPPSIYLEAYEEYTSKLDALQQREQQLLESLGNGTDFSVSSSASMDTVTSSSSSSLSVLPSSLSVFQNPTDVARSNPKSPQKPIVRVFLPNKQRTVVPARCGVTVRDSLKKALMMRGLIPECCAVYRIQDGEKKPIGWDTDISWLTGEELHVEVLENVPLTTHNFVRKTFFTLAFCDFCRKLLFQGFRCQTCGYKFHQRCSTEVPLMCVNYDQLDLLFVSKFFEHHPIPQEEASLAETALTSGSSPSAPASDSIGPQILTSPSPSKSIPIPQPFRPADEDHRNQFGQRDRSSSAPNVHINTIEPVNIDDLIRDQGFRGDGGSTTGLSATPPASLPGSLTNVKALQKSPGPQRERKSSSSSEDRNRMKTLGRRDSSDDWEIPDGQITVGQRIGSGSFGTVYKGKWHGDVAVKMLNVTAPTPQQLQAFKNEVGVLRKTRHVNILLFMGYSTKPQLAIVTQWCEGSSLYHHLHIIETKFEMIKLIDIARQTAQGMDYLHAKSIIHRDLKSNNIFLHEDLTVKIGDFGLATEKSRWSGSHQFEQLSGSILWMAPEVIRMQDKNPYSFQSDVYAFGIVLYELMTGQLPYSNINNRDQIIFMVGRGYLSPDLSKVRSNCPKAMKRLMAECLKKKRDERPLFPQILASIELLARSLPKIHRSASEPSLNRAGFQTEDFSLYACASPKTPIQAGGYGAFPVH
In short: (§2)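 Each Raf enzyme (0.1 ng) phosphorylates 100 nM biotin-MEK1 in pH 7.0 HEPES with Mg2+/Mn2+, 100 μM ATP final, 45 min at room temperature. Phospho-MEK1/2 antibody with AlphaScreen beads is read after 3 h. IC50 comes from an 8-point dilution series.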

CYP2C9 = CYP2C9 (Homo sapiens, UniProt P11712); assay: CYP2C9 inhibition (fluorescent substrate MFC); type: in vitro ADME; conditions: read-out: Cyp IC50 (μM) 2C9
Chain of CYP2C9 (P11712 whole entry): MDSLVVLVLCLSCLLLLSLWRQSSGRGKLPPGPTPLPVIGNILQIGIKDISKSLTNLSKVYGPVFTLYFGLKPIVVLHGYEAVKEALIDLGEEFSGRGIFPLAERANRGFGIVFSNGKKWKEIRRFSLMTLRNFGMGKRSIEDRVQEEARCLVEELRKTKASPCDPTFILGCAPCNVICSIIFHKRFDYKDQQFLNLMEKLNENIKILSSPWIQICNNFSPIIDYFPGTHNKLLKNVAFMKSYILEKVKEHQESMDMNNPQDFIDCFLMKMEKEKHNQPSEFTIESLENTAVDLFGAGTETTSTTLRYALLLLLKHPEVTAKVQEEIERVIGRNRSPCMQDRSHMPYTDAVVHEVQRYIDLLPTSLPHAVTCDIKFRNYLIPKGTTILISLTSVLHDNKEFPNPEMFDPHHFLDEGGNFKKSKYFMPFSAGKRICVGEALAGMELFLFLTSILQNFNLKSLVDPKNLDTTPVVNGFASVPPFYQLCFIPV
Experimental: as §1

CYP2C19 = CYP2C19 (Homo sapiens, UniProt P33261); assay: CYP2C19 inhibition (fluorescent substrate CEC); type: in vitro ADME; conditions: read-out: Cyp IC50 (μM) 2C19
Chain of CYP2C19 (P33261 whole entry): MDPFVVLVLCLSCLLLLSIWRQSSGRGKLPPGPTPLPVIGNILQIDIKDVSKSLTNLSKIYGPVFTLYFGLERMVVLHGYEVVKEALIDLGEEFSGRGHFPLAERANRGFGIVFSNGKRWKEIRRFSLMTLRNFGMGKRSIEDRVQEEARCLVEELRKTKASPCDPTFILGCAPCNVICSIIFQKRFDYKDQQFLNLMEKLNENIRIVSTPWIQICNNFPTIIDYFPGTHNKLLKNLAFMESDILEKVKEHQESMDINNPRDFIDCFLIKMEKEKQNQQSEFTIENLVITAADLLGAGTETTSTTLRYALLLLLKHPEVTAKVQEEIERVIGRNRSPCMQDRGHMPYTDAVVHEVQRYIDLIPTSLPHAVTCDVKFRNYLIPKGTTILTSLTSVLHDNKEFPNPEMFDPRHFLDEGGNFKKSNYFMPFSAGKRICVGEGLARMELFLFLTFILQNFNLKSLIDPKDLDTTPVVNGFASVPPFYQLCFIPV
Experimental: as §1

B-Raf = B-Raf (Homo sapiens, UniProt P15056); assay: B-Raf kinase activity assay (AlphaScreen, biotin-MEK1 substrate); conditions: 100 μM ATP, 100 nM biotin-MEK1, 45 minutes at room temperature; read-out: Biochemical activity (IC50 μM) B-Raf
Chain of B-Raf (P15056 whole entry): as the sequence (P15056 whole entry V600E) above, with E600V counted along it
In short: as §2

CYP3A4(BFC) = CYP3A4(BFC) (Homo sapiens, UniProt P08684); assay: CYP3A4 inhibition (substrate BFC); type: in vitro ADME; conditions: read-out: Cyp IC50 (μM) 3A4(BFC)
Chain of CYP3A4(BFC) (P08684 whole entry): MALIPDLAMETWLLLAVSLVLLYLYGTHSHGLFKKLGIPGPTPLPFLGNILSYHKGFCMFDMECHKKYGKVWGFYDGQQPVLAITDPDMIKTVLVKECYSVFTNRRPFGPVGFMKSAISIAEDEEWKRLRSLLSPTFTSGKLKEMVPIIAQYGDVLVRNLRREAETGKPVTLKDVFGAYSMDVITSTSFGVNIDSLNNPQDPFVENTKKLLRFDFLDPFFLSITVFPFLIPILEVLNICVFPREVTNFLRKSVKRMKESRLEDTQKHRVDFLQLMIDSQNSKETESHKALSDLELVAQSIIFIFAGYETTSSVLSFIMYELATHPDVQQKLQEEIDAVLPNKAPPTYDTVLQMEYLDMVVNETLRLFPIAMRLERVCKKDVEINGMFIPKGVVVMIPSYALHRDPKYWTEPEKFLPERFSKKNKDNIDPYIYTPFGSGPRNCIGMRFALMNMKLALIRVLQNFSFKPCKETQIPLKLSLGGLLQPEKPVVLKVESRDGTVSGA
Experimental: as §1

Chain of CYP2D6 (P10635 whole entry): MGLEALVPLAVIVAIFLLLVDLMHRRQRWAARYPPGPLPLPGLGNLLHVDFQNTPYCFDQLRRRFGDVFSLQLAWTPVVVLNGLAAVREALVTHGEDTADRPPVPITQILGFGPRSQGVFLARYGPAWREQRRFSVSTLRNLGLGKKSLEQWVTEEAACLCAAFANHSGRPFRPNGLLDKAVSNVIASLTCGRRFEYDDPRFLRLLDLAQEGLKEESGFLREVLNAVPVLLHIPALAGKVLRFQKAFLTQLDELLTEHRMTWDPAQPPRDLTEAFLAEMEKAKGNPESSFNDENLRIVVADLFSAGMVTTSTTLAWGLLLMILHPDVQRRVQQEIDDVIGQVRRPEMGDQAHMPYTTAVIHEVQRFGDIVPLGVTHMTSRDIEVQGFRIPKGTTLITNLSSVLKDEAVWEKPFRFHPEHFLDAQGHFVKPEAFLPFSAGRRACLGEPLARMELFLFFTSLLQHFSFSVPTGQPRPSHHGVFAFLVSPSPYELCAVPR

Compound	IC50 (CYP2D6) [µM]	IC50 (CYP1A2) [µM]	IC50 (B-Raf V600E) [µM]	IC50 (CYP2C9) [µM]	IC50 (CYP2C19) [µM]	IC50 (B-Raf) [µM]	IC50 (CYP3A4(BFC)) [µM]
CCCS(=O)(=O)Nc1ccc(F)c(C(=O)c2c[nH]c3ncc(-c4ccc5[nH]ncc5c4)cc23)c1F [P-0001, propane-1-sulfonic acid {2,4-difluoro-3-[5-(1H-indazol-5-yl)-1H-pyrrolo[2,3-b]pyridine-3-carbonyl]-phenyl}-amide]	> 10	> 10	< 0.1	< 5	< 5	< 0.1	> 10
O=C(c1c(F)ccc(NS(=O)(=O)c2cc(F)ccc2F)c1F)c1c[nH]c2ncc(-c3ccc4[nH]ncc4c3)cc12 [P-0002, N-{2,4-Difluoro-3-[5-(1H-indazol-5-yl)-1H-pyrrolo[2,3-b]pyridine-3-carbonyl]-phenyl}-2,5-difluoro-benzenesulfonamide]	> 10	> 10	< 0.1	< 5	5 to 10	< 0.1	–
CNC(=O)n1ncc2cc(-c3cnc4[nH]cc(C(=O)c5c(F)ccc(NS(=O)(=O)c6cc(F)ccc6F)c5F)c4c3)ccc21 [P-0003, 5-{3-[3-(2,5-Difluoro-benzenesulfonylamino)-2,6-difluoro-benzoyl]-1H-pyrrolo[2,3-b]pyridin-5-yl}-indazole-1-carboxylic acid methylamide]	> 10	> 10	< 0.1	< 5	< 5	< 0.1	> 10
CC(=O)n1cc(C(=O)c2c(F)ccc(NS(=O)(=O)c3cc(F)ccc3F)c2F)c2cc(-c3ccc4c(cnn4C(C)=O)c3)cnc21 [P-0004, N-{3-[1-Acetyl-5-(1-acetyl-1H-indazol-5-yl)-1H-pyrrolo[2,3-b]pyridine-3-carbonyl]-2,4-difluoro-phenyl}-2,5-difluoro-benzenesulfonamide]	> 10	> 10	< 0.1	< 5	< 5	< 0.1	> 10
CC(=O)n1ncc2cc(-c3cnc4[nH]cc(C(=O)c5c(F)ccc(NS(=O)(=O)c6cc(F)ccc6F)c5F)c4c3)ccc21 [P-0005, N-{3-[5-(1-Acetyl-1H-indazol-5-yl)-1H-pyrrolo[2,3-b]pyridine-3-carbonyl]-2,4-difluoro-phenyl}-2,5-difluoro-benzenesulfonamide]	> 10	> 10	< 0.1	< 5	< 5	< 0.1	> 10
CC(=O)N(c1ccc(F)c(C(=O)c2cn(C(C)=O)c3ncc(-c4ccc5c(cnn5C(C)=O)c4)cc23)c1F)S(=O)(=O)c1cc(F)ccc1F [P-0006, N-Acetyl-N-{3-[1-acetyl-5-(1-acetyl-1H-indazol-5-yl)-1H-pyrrolo[2,3-b]pyridine-3-carbonyl]-2,4-difluoro-phenyl}-2,5-difluoro-benzenesulfonamide]	> 10	5 to 10	< 0.1	< 5	5 to 10	< 0.1	> 10
CCCS(=O)(=O)Nc1ccc(F)c(C(=O)c2c[nH]c3ncc(-c4ccc5c(cnn5C(C)=O)c4)cc23)c1F [P-0007, propane-1-sulfonic acid {3-[5-(1-acetyl-1H-indazol-5-yl)-1H-pyrrolo[2,3-b]pyridine-3-carbonyl]-2,4-difluoro-phenyl}-amide]	> 10	< 5	< 0.1	< 5	< 5	< 0.1	> 10
CCCS(=O)(=O)Nc1ccc(F)c(C(=O)c2c[nH]c3ncc(-c4ccc5nn(C)cc5c4)cc23)c1F [P-0010, Propane-1-sulfonic acid {2,4-difluoro-3-[5-(2-methyl-2H-indazol-5-yl)-1H-pyrrolo[2,3-b]pyridine-3-carbonyl]-phenyl}-amide]	> 10	> 10	< 0.1	> 10	> 10	< 0.1	> 10
CCCS(=O)(=O)Nc1ccc(F)c(C(=O)c2c[nH]c3ncc(-c4ccc5cn(C)nc5c4)cc23)c1F [P-0011, Propane-1-sulfonic acid {2,4-difluoro-3-[5-(2-methyl-2H-indazol-6-yl)-1H-pyrrolo[2,3-b]pyridine-3-carbonyl]-phenyl}-amide]	> 10	< 5	< 0.1	5 to 10	> 10	< 0.1	> 10
CCCS(=O)(=O)Nc1ccc(F)c(C(=O)c2c[nH]c3ncc(-c4ccc5[nH]ccc5c4)cc23)c1F [P-0012, Propane-1-sulfonic acid {2,4-difluoro-3-[5-(1H-indol-5-yl)-1H-pyrrolo[2,3-b]pyridine-3-carbonyl]-phenyl}-amide]	> 10	> 10	< 0.1	5 to 10	< 5	< 0.1	5 to 10
CCCS(=O)(=O)Nc1ccc(F)c(C(=O)c2c[nH]c3ncc(-c4cccc5nn(C)cc45)cc23)c1F [P-0015, Propane-1-sulfonic acid {2,4-difluoro-3-[5-(2-methyl-2H-indazol-4-yl)-1H-pyrrolo[2,3-b]pyridine-3-carbonyl]-phenyl}-amide]	> 10	> 10	< 0.1	5 to 10	> 10	< 0.1	> 10
CCCS(=O)(=O)Nc1ccc(F)c(C(=O)c2c[nH]c3ncc(-c4ccc5c(cnn5S(C)(=O)=O)c4)cc23)c1F [P-0016, propane-1-sulfonic acid {2,4-difluoro-3-[5-(1-methanesulfonyl-1H-indazol-5-yl)-1H-pyrrolo[2,3-b]pyridine-3-carbonyl]-phenyl}-amide]	> 10	> 10	< 0.1	> 10	> 10	< 0.1	> 10
CCCS(=O)(=O)Nc1ccc(F)c(C(=O)c2c[nH]c3ncc(-c4ccc5ncsc5c4)cc23)c1F [P-0020, Propane-1-sulfonic acid [3-(5-benzothiazol-6-yl-1H-pyrrolo[2,3-b]pyridine-3-carbonyl)-2,4-difluoro-phenyl]-amide]	> 10	> 10	< 0.1	> 10	5 to 10	< 0.1	> 10
CCCS(=O)(=O)Nc1ccc(F)c(C(=O)c2c[nH]c3ncc(-c4ccc5[nH]cc(C)c5c4)cc23)c1F [P-0023, Propane-1-sulfonic acid {2,4-difluoro-3-[5-(3-methyl-1H-indol-5-yl)-1H-pyrrolo[2,3-b]pyridine-3-carbonyl]-phenyl}-amide]	> 10	> 10	< 0.1	> 10	< 5	< 0.1	> 10
